This passage reports TGI and GI50 results from PubChem BioAssay (NCI).

Some test systems named below: 786-0 renal; A549 NSCLC; ACHN renal; CCRF-CEM leukemia; HCC-2998 colon; K-562 leukemia; SK-MEL-5 melanoma; SNB-75 CNS; SW-620 colon; DMS 114 small cell lung; SNB-78 CNS; XF 498 CNS.
Common to all, as to assay: NCI anticancer screen, dose series, 48 h

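Tested at 5 concentrations; 48 h exposure; 96-well plates; endpoints linearly interpolated, else capped at highest concentration. Here, GI50 denotes the concentration required for 50% inhibition of growth. TGI: concentration producing complete growth inhibition.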

As to `C[C@]12CC(c3ccccc3O1)C(C(=O)NC13CC4CC(CC(C4)C1)C3)C(=O)N2` (some centres not stated), the TGI with 786-0 renal was 40.8 µM; with A549 NSCLC, 71.7 µM; in the assay on ACHN renal, greater than 100 µM; in the assay with CCRF-CEM leukemia it was 61.1 µM; with HCC-2998 colon, greater than 100 µM; in the assay with K-562 leukemia it was 30.4 µM. Besides, the TGI is 33.3 µM in the assay with SK-MEL-5 melanoma, 74 µM in the assay on SNB-75 CNS and greater than 100 µM in the assay with SW-620 colon.
Consider `CN(C)Cc1ccc(C(=O)Nc2ccc3ncnc(Nc4ccc(Oc5cccc(F)c5)c(Cl)c4)c3c2)cc1`, for which the GI50 in the assay on ACHN renal is 1.15 µM; in the assay with CCRF-CEM leukemia, 1.65 µM; in the assay with HCC-2998 colon, 1.67 µM; in the assay on K-562 leukemia, 1.17 µM; with SK-MEL-5 melanoma, 1.59 µM; in the assay with SNB-75 CNS, 1.48 µM. For the same compound, the GI50 in the assay with SW-620 colon is 1.76 µM. The TGI in the assay on ACHN renal is 2.36 µM; in the assay with CCRF-CEM leukemia it was 4.65 µM; in the assay with HCC-2998 colon, 3.11 µM; in the assay on K-562 leukemia, 2.88 µM; in the assay with SK-MEL-5 melanoma, 2.97 µM; in the assay on SNB-75 CNS it was 2.84 µM. The TGI with SW-620 colon amounted to 3.31 µM.
In the case of `O=C1c2ccccc2-c2ccc(N=[N+]([O-])c3ccc4c(c3)C(=O)c3ccccc3-4)cc21`, the TGI in the assay with 786-0 renal, in the assay on A549 NSCLC, in the assay with ACHN renal, in the assay with CCRF-CEM leukemia, in the assay with HCC-2998 colon and with K-562 leukemia was greater than 100 µM in each case. Further, the TGI in the assay on SK-MEL-5 melanoma, with SNB-75 CNS and with SW-620 colon was greater than 100 µM each time.
Consider `C=C1C(=O)OC2C1C(OC(=O)/C(C)=C/C)CC1(C)C(=O)CCC(=C)C21` (configuration not stated), for which the TGI is 20.9 µM in the assay on 786-0 renal; 43.7 µM with A549 NSCLC; 8.23 µM with ACHN renal; greater than 80.9 µM with CCRF-CEM leukemia; 26.6 µM with HCC-2998 colon; 22.8 µM in the assay on SK-MEL-5 melanoma. Besides, the TGI turned out to be 32 µM with SNB-75 CNS and 23.4 µM in the assay with SW-620 colon.
In the case of `CC(C)CC1c2[nH]c3ccccc3c2C[C@H]2C(=O)NC(CCC(=O)OC(C)(C)C)C(=O)N12` (some centres not stated), the TGI in the assay on 786-0 renal is greater than 100 µM; with A549 NSCLC, greater than 100 µM; with ACHN renal it was greater than 100 µM; with K-562 leukemia it was greater than 100 µM; in the assay on SK-MEL-5 melanoma it was 61.7 µM; in the assay with SW-620 colon it was greater than 100 µM.
For the compound `c1ccc2sc(C3(N4CCCCC4)CCCC3)cc2c1`, the TGI with 786-0 renal came to 28.9 µM; in the assay on A549 NSCLC, 22.3 µM; in the assay with ACHN renal, 21 µM; in the assay on CCRF-CEM leukemia it was 17.7 µM; with HCC-2998 colon, 13.5 µM; with K-562 leukemia, 23.9 µM. Besides, the TGI in the assay on SK-MEL-5 melanoma turned out to be 22.9 µM; in the assay on SNB-75 CNS, 30.6 µM; in the assay on SW-620 colon, 24.1 µM.
On to `O=C(O)C1CC(c2ccccc2)=NN1c1ccccc1` (configuration not stated), for which the TGI with 786-0 renal was greater than 100 µM; in the assay on A549 NSCLC it was greater than 100 µM; in the assay with ACHN renal, greater than 100 µM; in the assay with CCRF-CEM leukemia, greater than 100 µM; in the assay on HCC-2998 colon it was 57.4 µM; with K-562 leukemia, greater than 100 µM. Moreover, the TGI with SK-MEL-5 melanoma, in the assay with SNB-75 CNS and in the assay on SW-620 colon was greater than 100 µM throughout.
Consider `S=C1N(c2ccc(Cl)cc2)C2=C(N=Nc3ccccc3)C(=Nc3ccccc3S2)N1c1ccccn1`, for which the TGI came to 28.1 µM in the assay with 786-0 renal; 29.1 µM in the assay with A549 NSCLC; 27.5 µM with ACHN renal; 22.9 µM in the assay on CCRF-CEM leukemia; 35.7 µM in the assay with HCC-2998 colon; 23.4 µM in the assay on SK-MEL-5 melanoma. Moreover, the TGI in the assay with SNB-75 CNS was 49.2 µM; with SW-620 colon it was 34.9 µM.
For the compound `Oc1cc2cccc[n+]2c2cccc(Cl)c12`, the GI50 in the assay with ACHN renal is 21.7 µM; in the assay with CCRF-CEM leukemia, 26.1 µM; in the assay with HCC-2998 colon, 52.4 µM; in the assay on K-562 leukemia, 25.4 µM; in the assay with SK-MEL-5 melanoma, 19.7 µM; in the assay on SW-620 colon, 32.8 µM. The TGI with ACHN renal came out at 52.5 µM; in the assay with CCRF-CEM leukemia, 73.7 µM; with K-562 leukemia, 76 µM; in the assay on SK-MEL-5 melanoma, 34.7 µM.
For the compound `O=S(=O)(c1ccc(I)cc1)N(c1ccccc1)S(=O)(=O)C(F)(F)C(F)(F)C(F)(F)C(F)(F)F`, the TGI with 786-0 renal, in the assay on A549 NSCLC, with ACHN renal, with CCRF-CEM leukemia, in the assay on K-562 leukemia and in the assay with SW-620 colon was greater than 100 µM in each case.
As for `COc1cc(-c2coc3c(OC)c(OC4OC(CO)C(O)C(O)C4O)c(OC)cc3c2=O)cc(OC)c1C` (configuration not stated), the TGI in the assay on 786-0 renal is greater than 100 µM; in the assay on A549 NSCLC, greater than 55.6 µM; in the assay on ACHN renal, 30 µM; in the assay on CCRF-CEM leukemia, greater than 41.7 µM; with HCC-2998 colon, 18.6 µM; with K-562 leukemia, greater than 70.4 µM. In addition, the results for the TGI with SK-MEL-5 melanoma, in the assay with SNB-75 CNS and in the assay with SW-620 colon were 27.8 µM, 21.6 µM and greater than 41.3 µM, respectively.
For the compound `S=C(Nc1ccc(Cl)cc1)Nc1ccc(Cl)cc1` (tested in a mixture with another compound), the GI50 is 2.38 µM in the assay with A549 NSCLC; 2.37 µM with ACHN renal; 1.61 µM in the assay with CCRF-CEM leukemia; 2.07 µM in the assay on HCC-2998 colon; 2.28 µM in the assay with K-562 leukemia; 1.55 µM in the assay on SK-MEL-5 melanoma. Also, the GI50 was 1.65 µM in the assay on SNB-75 CNS and 2.99 µM with SW-620 colon. Also, the TGI was greater than 100 µM with A549 NSCLC; 9.12 µM with ACHN renal; 9.83 µM with CCRF-CEM leukemia; 5.5 µM in the assay on HCC-2998 colon; greater than 100 µM in the assay with K-562 leukemia; 2.94 µM in the assay on SK-MEL-5 melanoma. The TGI in the assay on SNB-75 CNS was 4.87 µM; in the assay on SW-620 colon, 13.8 µM.
As for `CC1(C)COC(/C=C/C2=NC(C)(C)CO2)=N1`, the TGI in the assay on A549 NSCLC was greater than 100 µM; in the assay on ACHN renal, 57.3 µM; with CCRF-CEM leukemia it was 28.8 µM; in the assay with K-562 leukemia it was 63.4 µM; in the assay with SK-MEL-5 melanoma it was 27.3 µM; in the assay on SNB-75 CNS, greater than 100 µM. The compound also registered a TGI in the assay on SW-620 colon of 26.9 µM.
For `O=C(/C=C/c1ccc(O)cc1)NCCc1ccc(O)cc1`, the TGI was greater than 12.5 µM with 786-0 renal; greater than 12.5 µM with A549 NSCLC; greater than 12.5 µM with ACHN renal; 11.4 µM with CCRF-CEM leukemia; greater than 12.5 µM with K-562 leukemia; greater than 12.5 µM in the assay with SK-MEL-5 melanoma. This compound yielded a TGI in the assay with SW-620 colon greater than 12.5 µM.
`C[N+]1(C)CCC(C#N)(c2ccccc2)CC1`: the TGI in the assay on 786-0 renal, in the assay with A549 NSCLC, in the assay on ACHN renal, with CCRF-CEM leukemia, with HCC-2998 colon and in the assay on K-562 leukemia was greater than 100 µM in each case. Moreover, the TGI with SK-MEL-5 melanoma, in the assay on SNB-75 CNS and in the assay with SW-620 colon was greater than 100 µM throughout.
On to `CC(O)C(O)C(N)CC=O` (configuration not stated), for which the TGI in the assay on A549 NSCLC, with CCRF-CEM leukemia, in the assay on DMS 114 small cell lung, in the assay on HCC-2998 colon, in the assay on K-562 leukemia and with SK-MEL-5 melanoma was greater than 500 µM throughout. The TGI in the assay on SNB-75 CNS was greater than 500 µM; in the assay on SNB-78 CNS, greater than 500 µM; in the assay with SW-620 colon, greater than 185 µM; in the assay with XF 498 CNS, greater than 414 µM.
Turning to `CCOC(=O)n1cncc1CC(NC(=O)Cc1c(C(=O)C=C(C)C)[nH]c2ccccc12)C(=O)OC` (configuration not stated), the TGI in the assay with 786-0 renal is 55.5 µM; with A549 NSCLC, 45.3 µM; with ACHN renal, 36 µM; in the assay with CCRF-CEM leukemia, 50.9 µM; with HCC-2998 colon, 32.2 µM; with K-562 leukemia, greater than 100 µM. For the same compound, the TGI in the assay with SK-MEL-5 melanoma is 37.5 µM; in the assay on SNB-75 CNS, 49.7 µM; in the assay on SW-620 colon, greater than 100 µM.
As for `O=C1/C(=C\c2ccc(-c3ccc(Cl)cc3Cl)o2)SC2N=C(COc3ccc(Cl)cc3)NN12` (configuration not stated), the TGI in the assay on 786-0 renal, in the assay with A549 NSCLC, in the assay on ACHN renal, in the assay on CCRF-CEM leukemia, with HCC-2998 colon and in the assay on K-562 leukemia was greater than 100 µM each time. Moreover, the TGI in the assay on SK-MEL-5 melanoma, with SNB-75 CNS and in the assay with SW-620 colon was greater than 100 µM throughout.
With `COC(=O)C1=CC[C@@H]2C(C(=O)O)=CO[C@@H](OC3OC(CO)C(O)C(O)C3O)[C@H]12` (some centres not stated), the TGI is greater than 300 µM in the assay with A549 NSCLC; greater than 119 µM in the assay with CCRF-CEM leukemia; greater than 300 µM in the assay on DMS 114 small cell lung; greater than 300 µM in the assay on HCC-2998 colon; greater than 300 µM with K-562 leukemia; greater than 288 µM in the assay with SK-MEL-5 melanoma. Besides, the TGI was greater than 300 µM with SNB-75 CNS, greater than 178 µM in the assay with SNB-78 CNS, greater than 300 µM with SW-620 colon and greater than 300 µM with XF 498 CNS.
Turning to `CC(C)C(N=Cc1ccccc1O)C(=O)O` (configuration not stated), the TGI with 786-0 renal, in the assay with A549 NSCLC, in the assay with ACHN renal, in the assay on CCRF-CEM leukemia, in the assay on K-562 leukemia and in the assay with SK-MEL-5 melanoma was greater than 100 µM each time. In the assay with SW-620 colon, this compound displayed a TGI greater than 100 µM.
Regarding `O=S(O)c1cc(Cl)cc(Cl)c1O`, the TGI in the assay on ACHN renal, with CCRF-CEM leukemia, in the assay with DMS 114 small cell lung, with HCC-2998 colon, with K-562 leukemia and in the assay on SNB-75 CNS was greater than 100 µM in each case. Also, the TGI in the assay on SNB-78 CNS and in the assay with XF 498 CNS was greater than 100 µM each time.
In the case of `N#C/C=C1\C=CC(O)C(O)C1OC1OC(CO)C(O)C(O)C1O` (configuration not stated), the TGI in the assay with 786-0 renal, in the assay on A549 NSCLC, with ACHN renal, with CCRF-CEM leukemia, in the assay with HCC-2998 colon and in the assay with K-562 leukemia was greater than 100 µM in each case. For the same compound, the TGI with SK-MEL-5 melanoma, in the assay on SNB-75 CNS and in the assay on SW-620 colon was greater than 100 µM throughout.
Consider `CC(=O)OCC1OC(O[C@@H]2c3c(O)c4c(c(O)c3C3=C(NN(c5ccc([N+](=O)[O-])cc5[N+](=O)[O-])[Se]3=O)[C@@]2(C)O)C(=O)c2ccccc2C4=O)C(OC(C)=O)C(OC(C)=O)C1OC(C)=O` (some centres not stated), for which the TGI is 0.296 µM in the assay on 786-0 renal; 2.07 µM in the assay on A549 NSCLC; 0.607 µM in the assay on ACHN renal; 1.08 µM with CCRF-CEM leukemia; 1.2 µM in the assay on HCC-2998 colon; 0.431 µM in the assay on K-562 leukemia. The figures for the TGI in the assay with SK-MEL-5 melanoma, with SNB-75 CNS and with SW-620 colon were 0.42 µM, 6.24 µM and 0.339 µM, respectively.
